For one test, the system named is S. aureus 3626 (MRSA). Nature of the test: In vitro antibacterial activity, agar dilution method. The format is cell-based. To be noted: 10^6 cfu/ml. As for the experimental part: (§1) Antibacterial activity in vitro of antibiotic stalobacins H and I obtained in Example 1 was assayed by the agar dilution method.
Background: In agar dilution, organisms are placed on agar that contains the substance at set levels.

For the next test, the system named is S. aureus FDA JC-1. The description is as above. The format is cell-based. To be noted: 10^6 cfu/ml. How it is done: as §1
The next test concerns S. faecalis SR1004. The description is as above. To be noted: 10^6 cfu/ml. In kind it is cell-based. As for the experimental part: as §1
The test system of test [1] is E. faecalis SR1004. The test is described as follows: Protective effect in systemically infected mice. The format is in vivo. The following applies: mice challenged intraperitoneally with E. faecalis SR1004; subcutaneous administration one hour after challenge; survival ratio on 7th day. How it is done:
(§2) Antibacterial activity in vivo of stalobacin I was assayed. Mice were intraperitoneally challenged with infectious bacteria. One hour after the challenge, the test compound was subcutaneously administered. ED50 values was calculated on the basis of survival ratio on 7th day after the challenge. MIC was determined according to the agar dilution method.

The test system of test [2] is S. aureus SR3637 (H-MRSA). The test is described as follows: Protective effect in systemically infected mice. In kind it is in vivo. The following applies: mice challenged intraperitoneally with S. aureus SR3637 (H-MRSA); subcutaneous administration one hour after challenge; survival ratio on 7th day. How it is done: as §2
Test [3] concerns S. pneumoniae Type I. Nature of the test: Protective effect in systemically infected mice. In kind it is in vivo. The following applies: mice challenged intraperitoneally with S. pneumoniae Type I; subcutaneous administration one hour after challenge; survival ratio on 7th day. As for the experimental part: as §2
Test [4] has as its system E. faecalis SR1004. In kind it is cell-based. As for the experimental part:
as §2

Test [5] relates to S. aureus SR3637 (H-MRSA). In kind it is cell-based. How it is done:
as §2

For test [6], the system named is S. pneumoniae Type I. The format is cell-based. As for the experimental part: as §2

Each structure is given as a SMILES string. Values after ≈ are worked out from the molar mass of the structure shown.

As a reminder, the ED50 is the dose that gives a 50% effect, or the effect in half of the subjects. One may read the MIC as the least concentration at which growth counts as inhibited. A higher MIC goes with a less susceptible organism. Consider `CCCCCC/C=C\CCCCC[C@@H]1C[C@H]1/C=C/C(O)C(=O)N[C@H](C(=O)N(C)[C@@H](CC(=O)O)C(=O)N(COC(C)(CC)C(NC(=O)C(NC(=O)[C@@H](N)CC(=O)O)C(O)C(O)CNC(=N)N)C(=O)NCC(=O)N[C@@H](CO)C(=O)O)[C@@]12C[C@@H]1CN(C(=N)N)C2=O)[C@H](O)C(=O)O` (stereo partly drawn) [Stalobacin I], for which the figures for the “Antibacterial activity in vitro” value in the test with S. aureus 3626 (MRSA), with S. aureus FDA JC-1 and in the test on S. faecalis SR1004 were 0.1 µg/mL, 0.05 µg/mL and 0.2 µg/mL, respectively. Moreover, the ED50 in the test on E. faecalis SR1004 [1] is reported as 1.50 mg/kg; in [2] it was 0.12 mg/kg; with S. pneumoniae Type I [3], 0.046 mg/kg. Moreover, the MIC in the test on E. faecalis SR1004 [4] is 0.2 mg/L (≈ 151 nM); in [5], 0.012 mg/L (≈ 9.05 nM); in the test on S. pneumoniae Type I [6], 0.006 mg/L (≈ 4.53 nM).

Values taken from patent EP0748335B1, “ANTIBIOTIC STALOBACINS” (SHIONOGI & CO., LTD., priority 1994, dated 1995).
